Legend:
Assay in all cases: relative viability (nuclei count vs DMSO), 5 days (fraction); higher = more cells survive
[1] = compound: CCN(CCO)CCCC(C)Nc1ccnc2cc(Cl)ccc12 [Hydroxychloroquine] + Nc1ncn([C@H]2C[C@H](O)[C@@H](CO)O2)c(=O)n1 [Decitabine] (partner 2 µM)
Summary of the method: (§1)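 Lung cancer cell lines in 1536-well plates were dosed by pin tool the day after seeding, either with one drug alone or with a fixed anchor-drug dose plus five library-drug doses (not always all listed) in √10 steps. After 5 days, cells were fixed and their nuclei stained in one step (final 0.05% Triton X-100, 1% formaldehyde, 1 ug/ml Hoechst), then counted on 4× images. Relative viability is the nuclei count in treated wells divided by that in vehicle wells. Values are medians of duplicate plates.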

[2] = compound: CCN(CCO)CCCC(C)Nc1ccnc2cc(Cl)ccc12 [Hydroxychloroquine] + CS(=O)(=O)CCNCc1ccc(-c2ccc3ncnc(Nc4ccc(OCc5cccc(F)c5)c(Cl)c4)c3c2)o1 [Lapatinib] (partner 2 µM)
Summary of the method: as §1

[3] = compound: CCN(CCO)CCCC(C)Nc1ccnc2cc(Cl)ccc12 [Hydroxychloroquine] + Cc1cc(Nc2cc(N3CCN(C)CC3)nc(Sc3ccc(NC(=O)C4CC4)cc3)n2)n[nH]1 [Tozasertib] (partner 0.1 µM)
Summary of the method: as §1

[4] = compound: CCN(CCO)CCCC(C)Nc1ccnc2cc(Cl)ccc12 [Hydroxychloroquine] + C[C@@H](Oc1cc(-c2cnn(C3CCNCC3)c2)cnc1N)c1c(Cl)ccc(F)c1Cl [Crizotinib] (partner 1 µM)
Summary of the method: as §1

| Cell Line | relative viability ([1]; first compound 0.5 µM) | relative viability ([1]; first compound 1.581 µM) | relative viability ([1]; first compound 5 µM) | relative viability ([1]; first compound 15.81 µM) | relative viability ([1]; first compound 50 µM) | relative viability ([2]; first compound 0.5 µM) | relative viability ([2]; first compound 1.581 µM) | relative viability ([2]; first compound 5 µM) | relative viability ([2]; first compound 15.81 µM) | relative viability ([2]; first compound 50 µM) | relative viability ([3]; first compound 0.5 µM) | relative viability ([3]; first compound 1.581 µM) | relative viability ([3]; first compound 5 µM) | relative viability ([3]; first compound 15.81 µM) | relative viability ([3]; first compound 50 µM) | relative viability ([4]; first compound 0.5 µM) | relative viability ([4]; first compound 1.581 µM) | relative viability ([4]; first compound 5 µM) | relative viability ([4]; first compound 15.81 µM) | relative viability ([4]; first compound 50 µM) |
| --- | --- | --- | --- | --- | --- | --- | --- | --- | --- | --- | --- | --- | --- | --- | --- | --- | --- | --- | --- | --- |
| NCI-H2170 | 0.438 | 0.449 | 0.396 | 0.438 | 0.457 | 0.261 | 0.251 | 0.275 | 0.276 | 0.267 | 0.721 | 0.751 | 0.67 | 0.813 | 0.728 | 1.24 | 1.24 | 1.35 | 1.27 | 1.57 |
| NCI-H2347 | 0.658 | 0.536 | 0.618 | 0.573 | 0.636 | 0.882 | 0.842 | 1.09 | 0.922 | 0.958 | 0.553 | 0.455 | 0.664 | 0.402 | 0.469 | 0.887 | 0.588 | 0.544 | 0.728 | 0.85 |
| NCI-H2405 | 0.718 | 0.743 | 0.774 | 0.69 | 0.761 | 1.09 | 0.998 | 1.1 | 1.04 | 1.15 | 0.769 | 0.691 | 0.756 | 0.707 | 0.728 | 0.856 | 0.813 | 0.867 | 0.88 | 0.864 |
| NCI-H3122 | 0.429 | 0.413 | 0.468 | 0.426 | 0.403 | 1.02 | 1.01 | 1.05 | 1 | 1.07 | 0.434 | 0.368 | 0.397 | 0.456 | 0.505 | 0.283 | 0.275 | 0.275 | 0.252 | 0.279 |
| PC-3 [JPC-3] | 0.814 | 0.767 | 0.805 | 0.792 | 0.761 | 0.485 | 0.423 | 0.421 | 0.46 | 0.501 | 0.859 | 0.959 | 0.973 | 0.948 | 0.901 | 0.999 | 1 | 1.06 | 0.98 | 1.16 |
| PC-14 | 0.248 | 0.149 | 0.214 | 0.231 | 0.201 | 0.348 | 0.354 | 0.291 | 0.306 | 0.292 | 0.58 | 0.537 | 0.54 | 0.544 | 0.55 | 0.856 | 0.917 | 0.919 | 0.907 | 0.916 |
| RERF-LC-KJ | 0.659 | 0.684 | 0.754 | 0.7 | 0.608 | 0.847 | 0.805 | 0.942 | 0.779 | 0.94 | 0.452 | 0.523 | 0.541 | 0.487 | 0.478 | 0.942 | 0.785 | 0.786 | 0.848 | 0.81 |
| SK-LU-1 | 0.605 | 0.631 | 0.664 | 0.557 | 0.762 | 0.932 | 0.845 | 0.896 | 0.871 | 0.909 | 0.367 | 0.339 | 0.325 | 0.342 | 0.323 | 0.948 | 0.895 | 0.911 | 0.928 | 0.938 |
| SK-MES-1 | 0.389 | 0.304 | 0.419 | 0.361 | 0.366 | 0.515 | 0.418 | 0.487 | 0.472 | 0.449 | 1.06 | 0.943 | 1.02 | 1.02 | 0.94 | 0.933 | 0.955 | 1.13 | 1.1 | 1.03 |
| SW 1573 | 0.444 | 0.296 | 0.409 | 0.554 | 0.428 | 0.98 | 1.01 | 1.15 | 1.07 | 0.997 | 0.217 | 0.203 | 0.167 | 0.188 | 0.147 | 0.782 | 0.839 | 0.872 | 0.76 | 0.753 |
| UMC-11 | 0.541 | 0.485 | 0.633 | 0.663 | 0.619 | 0.829 | 0.735 | 0.982 | 1.1 | 1.13 | 0.191 | 0.188 | 0.217 | 0.393 | 0.196 | 0.586 | 0.573 | 0.69 | 0.664 | 0.846 |
